Test results published in EP4628074A1, “N-PALMITOYLETHANOLAMIDE FOR USE IN COMBINATION WITH A NON-STEROIDAL ANTI-INFLAMMATORY DRUG IN THE TREATMENT OF INFLAMMATORY PAIN” (priority 2024, dated 2025).
Values joined by “and” are separate entries in the source; they are usually repeats but may differ in a detail not shown here. Equal entries are not always repeated. “Also recorded” adds a separate entry of the source.

Tests used:
[1] = test system: CFA-induced inflammatory pain; assay: Paw pressure test, CFA-induced inflammatory pain, single (acute) oral administration (Experiment 1); assay type: in vivo, male Sprague-Dawley rats; conditions: for Pr > F: PEA 10 mg/kg
Source text: In the in vivo experimentation, male Sprague-Dawley rats (200-250 g) (Envigo, Varese, Italy) fed "ad libitum" and housed in cages with a controlled sleep/wake cycle were used.
Before the start of the study, the animals were subjected to a 1-week acclimatization period at the Center for Laboratory Animal Sheltering (Ce.S.A.L.) of the University of Florence, following all experimental procedures and protocols compliant with the principles of care and welfare of laboratory animals approved by the Italian Ministry of Health (Italian Legislative Decree 2014/26), European directives (EU Directive 2010/63) and the ARRIVE guidelines.
In order to cause inflammatory pain, Complete Freund's Adjuvant (CFA) was injected at a rate of 50 µL into the joint cavity of the left leg between the tibiofibular and tarsal bones after light anesthesia with 2% isoflurane. The control group was subjected to the same procedure, injecting an equal volume of saline solution (vehicle).
The animals were divided into 9 groups of 6 rats each and treated acutely per os with a single administration, starting from the seventh day after the induction of joint damage. • Group 1: healthy rats subjected to intra-articular injection of saline (vehicle group) • Group 2: rats injected with CFA and treated with 1% CMC, corresponding to the vehicle in which the compounds for the treatments of the following groups were suspended (CFA group); • Group 3: rats injected with CFA and treated with micronized PEA 10 mg/kg; • Group 4: rats injected with CFA and treated with diclofenac 30 mg/kg; • Group 5: rats injected with CFA and treated with diclofenac 3 mg/kg; • Group 6: rats injected with CFA and treated with diclofenac 3 mg/kg + micronized PEA 10 mg/kg; • Group 7: rats injected with CFA and treated with meloxicam 30 mg/kg; • Group 8: rats injected with CFA and treated with meloxicam 3 mg/kg; • Group 9: rats injected with CFA and treated with meloxicam 3 mg/kg + micronized PEA 10 mg/kg.
All animals were subjected to the paw pressure test at the level of the ipsilateral paw, performed before (T0) or after 15, 30, 45 and 60 minutes after the single administration of the treatment (T15, T30, T45 and T60, respectively). In particular, the nociceptive threshold was calculated with an analgesiometer (Ugo Basile, Varese, Italy) by applying an increasing pressure at constant speed (32 g/s) by means of a non-pointed conical support on the dorsal surface of the ipsilateral paw with respect to the injection of CFA (or vehicle). The nociceptive threshold was expressed as the force (in decagrams, dag) to which the animal reacts by retracting the paw or vocalizing (Leighton GE et al. kappa-Opioid agonists produce antinociception after i.v. and i.c.v. but not intrathecal administration in the rat. Br J Pharmacol. 1988; 93: 553-60).
The values emerged from the paw pressure test in the different treatment groups were compared with each other using the Generalized Linear Mixed Model (GLMM) followed by post-hoc analysis based on Tukey-Kramer correction for multiple comparisons, referring to the single treatment group, considering all the times.
The AUC was analyzed by a two-way factor analysis of variance (2x2 ANOVA), after plotting the mean values, according to the procedure shown by Slinker BK. The statistics of synergism. J Mol Cell Cardiol. 1998 Apr;30(4):723-31. The values were expressed as mean ± standard error mean (SEM). All the statistical analyses were carried out using the software SAS, version 9.4 (SAS Institute, Cary, NC, USA). The value p < 0.05 was considered significant.

[2] = test system: collagen-induced arthritis; assay: Paw volume by plethysmometry in collagen-induced arthritis (CIA) (Experiment 2); assay type: in vivo, Female Lewis rats; conditions: for Pr > F: 2x2 factorial analysis on swelling of the paw, PEA 30 mg/kg, ibuprofen 5 mg/kg, PEA*IBU = interaction (synergy)
Procedure: Rheumatoid arthritis is a disease characterized by inflammatory pain, in which the involved joints present swelling, stiffness and often erosive processes. Female Lewis rats were maintained on a 12/12 hour light/dark cycle, at constant temperature and humidity and acclimated for 1 week, with free access to water and standard diet. […] Arthritis score, change in paw volume (mL), and change in body weight (g) were measured as indicators of inflammatory pain. Arthritis severity was measured every other day starting on day 25, using the following score: 0 = no sign of arthritis; 1 = swelling and/or redness of the paw or toe; 2 = two joints involved; 3 = more than two joints involved; and 4 = severe arthritis of the entire paw and toes. The arthritis index for each subject was calculated by adding the four scores of the individual paws. The change in paw volume compared to day 21 was assessed every two days by plethysmometry (Ugo Basile) starting from day 25. The change in weight was measured for each animal on day 21 and then every two days starting from day 25.
The chosen inflammatory pain indicators were analyzed via Generalized Linear Model (GLM) followed by post-hoc analysis based on Tukey-Kramer correction for multiple comparisons. […] All analyzes were performed using SAS software, version 9.4 (SAS Institute, Cary, NC, USA).

## CCCCCCCCCCCCCCCC(=O)NCCO [PEA, N-palmitoylethanolamide]
[1]; ANOVA 2x2 on AUC of paw pressure test (Figure 2), diclofenac 3 mg/kg, line PEA*Dicl 3 = interaction (synergy)
  Pr > F: 0.0002
[1]; ANOVA 2x2 on AUC of paw pressure test (Figure 4), meloxicam 3 mg/kg, line PEA*Mel 3 = interaction (synergy)
  Pr > F: 0.0003
[1]; CFA-injected rats, single per os administration on day 7, micronized PEA 10 mg/kg and/or NSAID 3 mg/kg, GLMM with Tukey-Kramer
  p with respect to the CFA group (pain tolerance threshold): 0.9674 and 0.9588
[1]; CFA-injected rats, single per os administration on day 7 after CFA, micronized PEA 10 mg/kg and/or NSAID 3 mg/kg, T0-T60 min, all times considered
  pain tolerance threshold with respect to the CFA group: no significant difference; also recorded: no significant effect
[2]; 6° giorno di trattamento
  Pr > F: 0,0002
[2]; 8° giorno di trattamento
  Pr > F: <0,0001
[2]; 10° giorno di trattamento
  Pr > F: <0,0001
[2]; single administration of PEA 30 mg/kg or ibuprofen 5 mg/kg (not combined)
  effect on paw volume increase: had no effect
